Key:
OVCAR-3 cells = test: Inhibition on OVCAR-3 cell proliferation (CellTiter-Glo); type: cell-based; conditions: Homo sapiens, OVCAR-3 cells (TP53 R248Q mutation), 72 hours
Method: (§1) Influences of the compounds of the present invention on OVCAR-3 cell proliferation were determined by the following method. OVCAR-3 cells (containing TP53 R248Q mutation) were purchased from the Cell Bank of Shanghai Institute of Biochemistry and Cell Biology, Chinese Academy of Sciences, and cultured in an RPMI 1640 culture medium containing 1000 fetal bovine serum, 100 U penicillin and 100 μg/mL streptomycin. A cell viability was determined by a CellTiter-Glo® Luminescent Cell Viability Assay kit (Promega, article number G7573).
(§2) An experimental method was operated according to steps in the instruction of the kit, which was briefly described as follows: a test compound was dissolved in DMSO first to prepare a 10 mM stock solution, then the stock solution was diluted with the above RPMI 1640 culture medium to prepare a test sample, and a final concentration of the compound was in a range of 1000 nM-0.015 nM. Cells in a logarithmic growth phase were inoculated into a 96-well cell culture plate at a density of 1000 cells per well, cultured in a 5% CO2 incubator at 37° C. overnight, and then the test compound was added to continuously culture for 72 hours. After the culture was ended, 50 μL of CellTiter-Glo detection solution was added to each well, the plates were shaken for 5 minutes, and then allowed to stand for 10 minutes, and subsequently, a luminous value of each well of sample was read by a microplate reader in a Luminescence mode. By comparing with a numerical value of a control group (0.3% DMSO), a percentage inhibition rate of the compound at each concentration was calculated, and then nonlinear regression analysis was carried out based on concentration logarithm-inhibition rate of the compound in GraphPad Prism 5 software, so as to obtain an IC50 value of the compound in inhibition on cell proliferation, which are shown in Table 1.

HT-29 cells = test: Inhibition on HT-29 cell proliferation (CellTiter-Glo); type: cell-based; conditions: Homo sapiens, HT-29 cells (TP53 R273H mutation), 120 hours
Method: as §1, with “HT-29” for “OVCAR-3”, “R273H” for “R248Q”, “a McCOY's 5A” for “an RPMI 1640”, “10%” for “1000”
as §2, with “McCOY's 5A” for “RPMI 1640”, “120” for “72”, “µL” for “μL”, “2.” for “1.”

recombinant human KIF18A = biological target: T1, recombinant human KIF18A (Homo sapiens, UniProt Q8NI77); test: Inhibition on KIF18A enzyme activity (ADP-Glo); type: biochemical; conditions: recombinant human KIF18A 100 nM, ATP 60 μM
T1 construct: purchased GenScript
T1 sequence (Q8NI77 whole entry): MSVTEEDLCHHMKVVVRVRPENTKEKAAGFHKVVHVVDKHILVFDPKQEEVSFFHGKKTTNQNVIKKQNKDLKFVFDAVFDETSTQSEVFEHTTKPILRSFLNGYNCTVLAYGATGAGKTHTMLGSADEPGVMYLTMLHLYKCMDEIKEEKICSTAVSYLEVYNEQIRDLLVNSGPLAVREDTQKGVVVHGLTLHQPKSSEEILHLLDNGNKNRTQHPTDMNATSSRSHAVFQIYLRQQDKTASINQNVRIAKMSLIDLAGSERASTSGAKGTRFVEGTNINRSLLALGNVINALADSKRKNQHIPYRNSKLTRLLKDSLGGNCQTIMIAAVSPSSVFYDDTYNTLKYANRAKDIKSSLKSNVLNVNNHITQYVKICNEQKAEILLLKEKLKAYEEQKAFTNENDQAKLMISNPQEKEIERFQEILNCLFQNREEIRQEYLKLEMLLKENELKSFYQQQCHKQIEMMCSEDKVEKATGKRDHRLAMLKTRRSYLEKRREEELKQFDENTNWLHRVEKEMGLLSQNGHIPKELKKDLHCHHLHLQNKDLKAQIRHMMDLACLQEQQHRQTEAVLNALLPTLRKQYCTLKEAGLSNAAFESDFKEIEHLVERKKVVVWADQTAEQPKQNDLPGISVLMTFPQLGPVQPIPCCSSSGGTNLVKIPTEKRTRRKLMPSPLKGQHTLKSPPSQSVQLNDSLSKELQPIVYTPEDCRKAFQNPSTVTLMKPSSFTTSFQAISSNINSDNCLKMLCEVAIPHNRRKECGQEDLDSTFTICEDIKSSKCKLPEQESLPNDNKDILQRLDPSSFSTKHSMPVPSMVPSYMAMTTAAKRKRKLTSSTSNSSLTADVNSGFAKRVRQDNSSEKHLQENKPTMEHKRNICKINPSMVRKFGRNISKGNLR
T1 sequence (P68363 whole entry partner): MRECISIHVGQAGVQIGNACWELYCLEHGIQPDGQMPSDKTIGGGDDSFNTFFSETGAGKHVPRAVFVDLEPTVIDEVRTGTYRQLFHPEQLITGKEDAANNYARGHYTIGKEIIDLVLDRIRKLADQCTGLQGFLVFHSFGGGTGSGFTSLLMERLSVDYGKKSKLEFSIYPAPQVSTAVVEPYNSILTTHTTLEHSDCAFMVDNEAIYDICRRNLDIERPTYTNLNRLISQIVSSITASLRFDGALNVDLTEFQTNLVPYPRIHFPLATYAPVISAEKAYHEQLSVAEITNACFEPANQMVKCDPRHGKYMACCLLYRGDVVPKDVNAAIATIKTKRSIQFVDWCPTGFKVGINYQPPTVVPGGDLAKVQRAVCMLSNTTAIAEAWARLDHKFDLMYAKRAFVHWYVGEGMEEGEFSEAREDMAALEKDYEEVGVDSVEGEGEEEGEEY
T1 sequence (Q9BVA1 whole entry partner): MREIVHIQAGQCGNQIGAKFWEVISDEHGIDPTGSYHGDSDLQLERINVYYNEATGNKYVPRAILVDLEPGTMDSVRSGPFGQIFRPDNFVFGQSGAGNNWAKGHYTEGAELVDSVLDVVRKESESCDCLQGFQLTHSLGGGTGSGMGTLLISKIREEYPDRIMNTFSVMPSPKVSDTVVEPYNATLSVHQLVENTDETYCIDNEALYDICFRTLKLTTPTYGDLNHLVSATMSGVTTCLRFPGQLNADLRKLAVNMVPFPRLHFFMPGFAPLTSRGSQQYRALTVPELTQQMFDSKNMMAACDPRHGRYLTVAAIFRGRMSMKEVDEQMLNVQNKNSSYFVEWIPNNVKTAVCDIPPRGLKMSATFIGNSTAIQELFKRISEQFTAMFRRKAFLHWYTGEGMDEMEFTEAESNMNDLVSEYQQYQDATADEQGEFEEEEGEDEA
Method: Inhibition degrees of the compounds of the present invention on recombinant human KIF18A enzyme activity in vitro were determined by the following method. An ADP-Glo™ Kinase Assay kit (article number V9102) from Promega Company was used in this method. Detailed experimental operation can be referred to the instruction of the kit.
The reaction was carried out in a 384-well microplate. The test compound and the recombinant human KIF18A protein (final concentration of 100 nM, entrusted to GenScript for expression) were added into the wells and incubated at room temperature for 20 minutes, and subsequently, ATP solution (component V915A from the ADP-Glo™ Kinase Assay kit, final concentration of 60 μM) was added to the reaction solution and the obtained system was incubated at room temperature for 20 minutes. Subsequently, 5 μL of ADP-Glo Reagent was added to the reaction system and the obtained system was incubated at room temperature for 50 minutes. Then, 10 μL of Kinase Detection Reagent was added to the reaction system, and the obtained system was incubated at room temperature for 30 minutes. After the incubation was ended, a chemiluminiscence intensity value of each well was determined by a microplate reader in a Luminescence mode.

Structure (SMILES) | IC50 (OVCAR-3 cells) [nM] | IC50 (HT-29 cells) [nM] | IC50 (recombinant human KIF18A) [nM]
CCS(=O)(=O)Nc1ccc(C(=O)Nc2cc3c(c(N4CCC(F)(F)CC4)c2)C(=O)N(C)C3)c(N2CCC3(CC2)CC3)c1 [Example 2, N-(7-(4,4-difluoropiperidin-1-yl)-2-methyl-1-oxoisoindolin-5-yl)-4-(ethylsulfonamido)-2-(6-azaspiro[2.5]octan-6-yl)benzamide] | 4.3 | 3.9 | 142
CCS(=O)(=O)Nc1ccc(C(=O)Nc2cc3c(c(N4CC(F)(F)C4)c2)OCC3)c(N2CCC3(CC2)CC3)c1 [Example 6, N-(7-(3,3-difluoroazetidine-1-yl)-2,3-dihydrobenzofuran-5-yl)-4-(ethylsulfonamido)-2-(6-azaspiro[2.5]octan-6-yl)benzamide] | 9.1 | 10.7 | 60.9
CCS(=O)(=O)Nc1ccc(C(=O)Nc2cc(N3CC(F)(F)C3)c3nn(C)cc3c2)c(N2CCC3(CC2)CC3)c1 [Example 24, N-(7-(3,3-difluoroazetidin-1-yl)-2-methyl-2H-indazol-5-yl)-4-(ethylsulfonamido)-2-(6-azaspiro[2.5]octan-6-yl)benzamide] | 13.4 | 4.1 | 85.7
O=C(Nc1cc2c(c(N3CCC(F)(F)CC3)c1)OCC2)c1ccc(NS(=O)(=O)C2CC2)cc1N1CCC2(CC1)CC2 [Example 7, 4-(cyclopropanesulfonamido)-N-(7-(4,4-difluoropyridin-1-yl)-2,3-dihydrobenzofuran-5-yl)-2-(6-azaspiro[2.5]octan-6-yl)benzamide] | 11 | 7.8 | 157

From US20260256763A1, “Aromatic Amide Derivative, And Preparation Method Therefor And Use Thereof” (Zhejiang Hisun Pharmaceutical Co., Ltd., priority 2023, published 2026)
